One assay deals with Pseudomonas cepacia. The settings on record: alkaline solutions of 1000 ppm H2O2, filtration units.
The test system of a further assay is Vibrio hollisae. The settings on record: 20° C., 3-50 ppm H2O2, 6-30 minutes exposure.
The subject of a further assay is biofouling. The following applies: cited from earlier work.
The test system of another assay is Perkinsus marinus. The settings on record: treatment time 30 minutes, four trials.

Here are results for one compound from US7754064B2, “Methods and apparatus for the on-site production of hydrogen peroxide” (Eltron Research & Development, priority 2006, dated 2010).

Method for Perkinsus marinus: The final series of trials explored the effectiveness of the treatment against the protozoan Perkinsus marinus which is pathogenic to shellfish and causes the disease Dermo. Essentially the same protocol used for QPX was adapted to Perkinsus and represented a novel method of determining Perkinsus viability after disinfection treatments. Here four duplicate trials were run, again with a treatment time of 30 minutes.
Method for QPX (Quahog Parasite-X): For the QPX studies, a stock QPX culture (Quahog Parasite-X, a protista slime mold causing shellfish disease) was washed three times in sterile nature seawater (NSW) to remove the nutrient media and disperse the encapsulating mucous mass. The washed sample was then re-suspended in sterile NSW (working culture). A sample aliquot was removed and diluted (1:1) in sterile NSW to determine the actual cell density. […] A control sample with NO peroxide in the treatment solution was also prepared. […] After incubation (48 hrs) the remainder of the innocula were centrifiged at 10,000 G for 2 minutes. All fluid was removed from the tube to leave a final volume of 100 μL. Propidium iodide (100 μL; 20 g/mL) was added to each tube and allowed to sit for 30 minutes in the dark at room temperature. The tubes were then centrifuged (10,000 G for 2 minutes) and the resulting pellet washed three times with filtered NSW (250 μL). After the third wash, 200 μL of fluid was removed from each tube and the pellet was re-suspended in the remaining 50 μL of fluid. The fluids generated from this preparation were added to a Neubauer hemocytometer counting chamber and the cell concentrations were determined between treatments. […]
Method for Vibrio hollisae: A stock culture of Vibrio hollisae was diluted to 1×10-5 with micropore filtered seawater (FSW). The dilution was calculated to yield a sample density of roughly 350 CFUs/mL after 48 hr of grow up. The experimental matrix consisted of peroxide concentration versus exposure time. The bacteria were exposed to the peroxide in liquid cultures, and then the treated bacteria were plated onto agar plates and colony counts done at 24 and 48 hrs. Data were analyzed for LD-100 conditions for maximal effect at lowest concentration and shortest exposure time. Six tubes of 5 mL bacterial culture were prepared. […] A control sample containing NO peroxide was also prepared. At each treatment exposure time point (6, 10, 15, and 30 minutes respectively), 1 mL was removed from each tube and filtered through a mixed cellulose ester filter (0.45 micron pore size, 47 mm dia., Fisher #09-719-1A). Each filter was then placed onto a TCBS (thiosulfate, citrate, bile, and sucrose) media plate and incubated for 48 hr at room temperature (23° C.). Standard colony counts were then made for the entire filter for each treatment condition. The procedure was repeated in triplicate. For each repetition, three separate samples (batches) were prepared and two duplicate trials were run for each batch sample. The results were statistically analyzed using ANOVA and paired student t-test paired comparisons. […]
From the text for mixed plankton: This study largely entailed LD50 and LD100 lethality screening of the target chemistry produced by the electrolytic system under development to natural marine organisms. Specifically, the work focused on organisms with sizes of less than 100 μm as larger organisms can be readily eliminated by other technologies (screening or hydrocyclones). Within this size regime normal crustaceans, planktons, and etc. obtained by trawling were targeted. […] For the trawled organisms and the protozoan, destruction was noted by lack of motility.
Mixed indigenous zooplankton (these provided random samples of a variety of organisms as might be encountered in ballast water) were obtained by plankton trawls from the waters off Woods Hole, Mass. and the toxicity assays focused on zooplankton (such as dinoflagellates which are less prone to sedimentation than say diatoms) where viability could be readily assessed through motility monitoring. After the samples were collected they were counted and separated into sample populations under a dissecting scope with a low heat lamp using standard techniques. […]
Toxicity studies were performed on the targeted plankton samples by exposing them to synthetic cell product and monitored until mortality occurred. […]

Regarding `OO` [hydrogen peroxide], in the assay with Pseudomonas cepacia, the Pseudomonas cepacia eliminated entry is listed as “more than 100%” and the “log kill of Pseudomonas cepacia” value came out at 7 log. In addition, the “time dosage values sufficient to achieve 2 log kills (99%)” value with Vibrio hollisae lay in the range of 1000 to 2000 ppm min. Besides, the “concentration typically required for sufficient effectiveness in sterilization” value in the assay on biofouling (industrial disinfection (powerplant biofouling, sewage treatment)) is listed as 50-200 ppm. Moreover, the “concentration that can be effective towards fouling control” value in the assay with biofouling (recent data) was 2 ppm. In addition, in the assay on Perkinsus marinus, the “time*dosage values sufficient to reduce occurrence of Perkinsus to hinder spread of disease” value was in the range of 1500 to 5000 ppm. In the assay with mixed plankton (mixed plankton, 4, 10 and 20° C., from LD-50 and LD-100, averaged over four concentrations), the “time*dosage factor for plankton kill” value lay within 1000 to 3000 ppm min. Also, the “LD50's as percent of 100% mortality times” value in the assay with mixed plankton (mixed zooplankton in natural seawater with added H2O2) is 40-50%. The “average viable cell count” value in the assay with QPX (Quahog Parasite-X) (10 ppm H2O2, 30 min., 20° C., average of two trials) was 430 cells/L. Besides, the “resistance to the treatment compared with general plankton and Vibrio ssp.” value in the assay with QPX (Quahog Parasite-X) (30 minutes treatment, 0-150 ppm) is “slightly more resistant”.
